Reference: patent publication US5034548A, “Steroid derivatives useful as hypocholesterolemics” (E. I. Du Pont de Nemours and Company, priority 1990, dated 1991)

Assays:
[1] = target: T1, Lanosta-8,24-dien-3β-ol 14α-methyl demethylase (Rattus norvegicus, UniProt Q64654); assay: Lanosta-8,24-dien-3β-ol 14α-Methyl Demethylase Inhibition Assay; format: biochemical; settings: rat hepatic microsomal preparations, 100 μM lanost-8-en-3β-ol substrate, pH not given; test compounds 0 to 100 μM
T1 construct: determined in rat depatic microsomal preparations; from tissue; host or cells: rat hepatic microsomes
T1 sequence (Q64654 1-503): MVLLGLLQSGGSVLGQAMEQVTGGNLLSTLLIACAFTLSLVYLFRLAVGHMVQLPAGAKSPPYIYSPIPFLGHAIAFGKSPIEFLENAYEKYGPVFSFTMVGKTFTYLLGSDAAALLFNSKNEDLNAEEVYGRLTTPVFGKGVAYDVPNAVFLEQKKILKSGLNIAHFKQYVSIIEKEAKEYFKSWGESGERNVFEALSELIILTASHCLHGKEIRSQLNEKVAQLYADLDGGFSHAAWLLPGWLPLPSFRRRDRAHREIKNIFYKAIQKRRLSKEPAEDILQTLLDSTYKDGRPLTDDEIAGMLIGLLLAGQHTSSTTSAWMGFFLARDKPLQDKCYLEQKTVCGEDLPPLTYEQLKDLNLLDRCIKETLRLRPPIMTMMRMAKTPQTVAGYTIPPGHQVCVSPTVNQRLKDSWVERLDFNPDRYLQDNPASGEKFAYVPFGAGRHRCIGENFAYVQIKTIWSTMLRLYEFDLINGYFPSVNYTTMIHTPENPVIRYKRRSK
Procedure: Lanosta-8,24-dien-3β-ol 14α-methyl demethylase activity was determined in rat depatic microsomal preparations as described in Trzaskos et al., J. Biol. Chem., 261, 16937-16942 (1986). Specifically, test compounds were added to assay mixtures as detergent suspensions with substrate employing 5 mg Triton WR-1339, 100 μM lanost-8-en-3β-ol substrate, and test compounds ranging from 0 to 100 μM. The inhibitor/substrate/detergent suspension was incubated with 2 mg microsomal protein for 5 min at 37° followed by a 10 min incubation initiated by the addition of cofactors required for the reaction. […] Inhibition values are expressed as the amount of compound required to inhibit lanosta-8,24-dien-3β-ol 14α-methyldemethylase activity by 50% relative to that of the controls.

[2] = tested on: cholesterol synthesis in CHO cells; assay: De novo cholesterol synthesis: incorporation of radiolabeled acetate into cholesterol in CHO cells; format: cell-based, Chinese Hamster; settings: for Cholesterol Synthesis (DPMs): 17 hr + 2 hr with [14C]-acetic acid, Control 38855
Procedure: The ability of the compounds of Formula I to decrease de novo cholesterol synthesis was tested by measuring the incorporation of radiolabeled acetate into cholesterol synthesized in CHO cells. To conduct this experiment, CHO cells were plated at 0.3×10^6 cells per 15×60 mm tissue culture dish in 5 mL of McCoy's modified medium (Gibco Laboratories) containing 1% Cab-O-Sil delipidated FBS and incubated for 48 hours at 37° in a 5% CO2, 95% air environment. Test compounds in a 2.5% suspension of BSA (fatty acid free) in ethanol were then added to the cultures such that the final ethanol and BSA concentrations were 0.5% and […], respectively. Control cultures received ethanol and BSA alone. The cultures containing test compounds were then incubated at 37° in a 5% Co, 95% air environment for 17 hr before the addition of [1,2-^14 C]-acetic acid (57 μCi/mmol); obtained from New England Nuclear, Boston, Mass.) at a concentration of 10 μCi/mL for 2 additional hr.
The cells were harvested by washing the cells twice with 5 mL of cold PBS and scraping the cells into 1 mL PBS. The cell-containing solution was then transferred to 15 mL extraction tubes and treated with 1 mL of 90% methanol (containing 15% KOH, 100 μg/mL butylated hydroxytoluene). All samples were saponified for 1 hr at 80° and the non-saponifiable lipids then extracted with petroleum ether. The petroleum ether fractions were dried under nitrogen, resuspended in ethanol, counted and analyzed by reverse phase HPLC at 45° using an Ultrashpere Octyl column (from Altex Scientific Inc., Berkeley, Calif.) with a mobile phase of acetonitrile:methanol:water (44:44:12). The amount of cholesterol synthesis is measured by the amount of radiolabeled acetate incorporated into the cholesterol peak. The percent of cholesterol synthesis in the treated culture is calculated based upon the control culture.

[3] = tested on: 3-Hydroxy-3-Methylglutaryl Coenzyme A Reductase (HMGR); assay: HMGR Suppression Assay in digitonin-permeabilized CHO cells; format: cell-based, Chinese Hamster; settings: 6 hr incubation at 37°, amount to suppress HMGR activity by 50% relative to controls
Procedure: The ability of the compounds of Formula I to suppress the activity of HMGR, the rate limiting enzyme of cholesterol biosynthesis, was tested as follows. Chinese Hamster Ovary (CHO) cells were divided twice weekly and were maintained in McCoy's 5A medium supplemented with 1% Cab-O-Sil delipidated Fetal Bovine Serum (FBS) (obtained from Gibco Laboratories, Chagrin Falls, Ohio). Cells were harvested during the logarithmic phase of growth and cell cultures were prepared by adding 0.5×10^6 cells to wash well in a 24 well cluster dish (obtained from Costar, Data Packaging Corp., Cambridge, Mass.) employing 1 mL of the above medium per each well. […] Control cells were treated in an identical fashion to those which received test compound, except they were incubated with the BSA and ethanol suspension only.
Specifically, the medium in each well was aspirated and the cells rinsed with a 50 mM solution of phosphate buffered saline (PBS). One mL of 30 μg/mL of digitonin in CSK buffer (prepared using 10 mM Pipes [piperazine-N,N'-bis(2-ethansulfonic)acid'], 100 mM KCl, 2.5 mM MgCl2, 300 mM sucrose, 1 mM EGTA, pH 6.8) was added to each well and incubated for 10 min at 22° to permeabilize the cells. The buffer was carefully aspirated and the wells were rinsed twice each time with 1 mL of PBS. HMGR activity was measured directly by adding 75 μL of PIB buffer (50 mM potassium phosphate, 1 mM Na2 EDTA, 10 mM dithiothreitol, pH 7.4) to each well and incubating the cells for 30 minutes at 37° as described above. […] HMG-Coenzyme A (15 DPM/pmol), pH 7.4. The assay mixture was incubated for 30 min at 37° and terminated by the addition of 70 μL of [^3 H]-mevalonic acid (35,000 DPM/assay), 0.15 mg/mL in 3 N HCl. The reaction was left to lactonize for an additional 30 min at 37° or overnight at room temperature.
Reaction products were separated by thin layer chromatography on silica gel G (obtained from Analtech, Newark, Del.) developed in an unsaturated environment with acetone:benzene (3:2, v:v). The band corresponding to mevalonolactone was identified by exposure to iodine vapor and was scraped into counting vials. The extent of conversion of starting substrate, HMG-CoA, to mevalonic acid was determined by liquid scintillation counting in Biofluor (obtained from New England Nuclear, Boston, Mass). Corrections for recovery and blank values were made for each sample. Protein determinations were made by the Bio-rad (Bio-Rad, Richmond, Cal.) dye binding assay according to the manufacturer's instruction using bovine serum albumin as standard. Cellular protein was solubilized from culture dishes by the addition of 20 μL of 16 N KOH and assayed directly for protein amount. Suppression values are expressed as the amount of compound required to suppress HMGR activity by 50% relative to that of the controls.

[4] = Lowering blood (plasma) cholesterol levels in hamsters; format: in vivo, Male Golden Syrian hamsters; settings: 0.2% (w/w) in diet, 7 days, N = 16, means±SEM
Procedure: Male Golden Syrian hamsters (50-60 grams) were obtained from Charles River, Inc. (Wilmington, Mass.). Animals were housed in individual suspension cages and were maintained on a light cycle consisting of 12 hours of light followed by 12 hours of dark. Animals were allowed free access to water and feed (Agway ground chow, RMH 3200, Agway, Syracuse, N.Y.) containing 1% (w/w) corn oil) for a minimum of 4 weeks. Following this stabilization period a sample of blood was collected by orbital sinus bleeding under light ether anesthesia into heparinized capillary tubes. Plasma was separated by centrifugation (600×g for 10 minutes) and plasma cholesterols were determined by an autoanalyzer (Centrifichem 600, Baker Instruments, Allentown, Pa.). Based upon measured plasma cholesterol values, the animals were randomized into two groups such that the mean plasma cholesterol values were identical for both groups.
Animals in the two groups were then placed on one of two diets: (1) Diet A, consisting of ground chow plus 1% (w/w) corn oil, as described above; or (2) Diet B, consisting of Diet A plus 0.2% (w/w) of a test compound. Animals on Diet B, the treated animals, were allowed free access to feed and water, while animals on Diet A were pair-matched with Diet B animals and served as pair-fed controls. […] Total plasma cholesterol levels were determined as described above. […]

SMILES	IC50 [1] [µM]	Cholesterol Synthesis (DPMs) ([2]; 0.5 μM)	activity at 0.5 µM ([2]; Cricetulus griseus, 19 h, 0.5 μM, percent of control culture (100)) [%]	IC50 [3] [µM]	Plasma Cholesterol, Treated ([4]; pair-fed control 136.0 ± 4.8) [mg/dL]	Cholesterol Synthesis (DPMs) ([2]; 1 μM)	activity at 1 µM ([2]; Cricetulus griseus, 19 h, 1 μM, percent of control culture (100)) [%]	Plasma Cholesterol, Treated ([4]; pair-fed control 136.0 ± 3.5) [mg/dL]
CC(C)CCC[C@@H](C)[C@H]1CC(=NO)[C@@]2(C)C3=CC[C@H]4C(C)(C)[C@@H](O)CC[C@]4(C)[C@H]3CC[C@]12C [Compound 31b, 3β-hydroxy-lanost-7-en-15-oxime]	55	24064	62	0.2	69.6 ± 2.6	–	–	–
CC(C)CCC[C@@H](C)[C@H]1C[C@H](O)[C@@]2(O)C3=C(CC[C@]12C)[C@@]1(C)CC[C@H](O)C(C)(C)[C@@H]1CC3 [Compound 34a, 4,4-dimethyl-5α-cholest-8-en-3β,14α,15α-triol]	3	–	–	0.5	–	16521	43	119.3 ± 2.3
